One series deals with PARP-1 enzyme (Homo sapiens, UniProt P09874). The experiment in a line: In vitro scintillation proximity assay (SPA) for PARP-1 inhibitory activity. It counts as biochemical. As to the method:
In Vitro Scintillation Proximity Assay (SPA) for PARP-1 Inhibitory Activity
Compounds of the present invention were tested in an in vitro assay based on SPA technology (proprietary to Amersham Pharmacia Biotech).
In principle, the assay relies upon the well established SPA technology for the detection of poly(ADP-ribosyl)ation of biotinylated target proteins, i.e histones. This ribosylation is induced using nicked DNA activated PARP-1 enzyme and [^3H]-nicotinamide adenine dinucleotide ([^3H]-NAD^+) as ADP-ribosyl donor.
As inducer of PARP-1 enzyme activity, nicked DNA was prepared. For this, 25 mg of DNA (supplier: Sigma) was dissolved in 25 ml DNAse buffer (10 mM Tris-HCl, pH 7.4; 0.5 mg/ml Bovine Serum Albumine (BSA); 5 mM MgCl2.6H2O and 1 mM KCl) to which 50 μl DNAse solution (1 mg/ml in 0.15 M NaCl) was added. After an incubation of 90 min. at 37° C., the reaction was terminated by adding 1.45 g NaCl, followed by a further incubation at 58° C. for 15 min. The reaction mixture was cooled on ice and dialysed at 4° C. for respectively 1.5 and 2 hours against 1.5 l of 0.2 M KCl, and twice against 1.5 l of 0.01 M KCl for 1.5 and 2 h respectively. The mixture was aliquoted and stored at −20° C. Histones (1 mg/ml, type II-A, supplier: Sigma) were biotinylated using the biotinylation kit of Amersham and stored aliquoted at −20° C. A stock solution of 100 mg/ml SPA poly(vinyl toluene) (PVT) beads (supplier: Amersham) was made in PBS. A stock solution of [^3H]-NAD^+ was made by adding 120 μl of [^3H]-NAD^+ (0.1 mCi/ml, supplier: NEN) to 6 ml incubation buffer (50 mM Tris/HCl, pH 8; 0.2 mM DTT; 4 mM MgCl2). A solution of 4 mM NAD^+ (supplier: Roche) was made in incubation buffer (from a 100 mM stock solution in water stored at −20° C.). The PARP-1 enzyme was produced using art known techniques, i.e. cloning and expression of the protein starting from human liver cDNA. Information concerning the used protein sequence of the PARP-1 enzyme including literature references can be found in the Swiss-Prot database under primary accession number P09874. Biotinylated histones and PVT-SPA beads were mixed and pre-incubated for 30 min. at room temperature. PARP-1 enzyme (concentration was lot dependent) was mixed with the nicked DNA and the mixture was pre-incubated for 30 min. at 4° C. Equal parts of this histones/PVT-SPA beads solution and PARP-1 enzyme/DNA solution were mixed and 75 μl of this mixture together with 1 μl of compound in DMSO and 25 μl of [^3H]-NAD^+ was added per well into a 96-well microtiterplate. The final concentrations in the incubation mixture were 2 μg/ml for the biotinylated histones, 2 mg/ml for the PVT-SPA beads, 2 μg/ml for the nicked DNA and between 5-10 μg/ml for the PARP-1 enzyme. After incubation of the mixture for 15 min. at room temperature, the reaction was terminated by adding 100 μl of 4 mM NAD^+ in incubation buffer (final concentration 2 mM) and plates were mixed.
The beads were allowed to sediment for at least 15 min. and plates transferred to a TopCountNXT™ (Packard) for scintillation counting, values were expressed as counts per minute (cpm). For each experiment, controls (containing PARP-1 enzyme and DMSO without compound), a blank incubation (containing DMSO but no PARP-1 enzyme or compound) and samples (containing PARP-1 enzyme and compound dissolved in DMSO) were run in parallel. All compounds tested were dissolved and eventually further diluted in DMSO. In first instance, compounds were tested at a concentration of 10^−5M. […] In each test, the blank value was subtracted from both the control and the sample values. The control sample represented maximal PARP-1 enzyme activity. For each sample, the amount of cpm was expressed as a percentage of the mean cpm value of the controls. […] Herein the effects of test compounds are expressed as pIC50 (the negative log value of the IC50-value).

[1] abbreviates: [3H]-NAD+, biotinylated histones, nicked DNA, read-out: in vitro SPA assay PARP-1 pIC50 (converted).

Where two headings read alike, the source gives them in different places.

What is called melting point is the temperature, or range, at which the solid turns liquid.

PARP-1 enzyme, sequence (P09874 whole entry): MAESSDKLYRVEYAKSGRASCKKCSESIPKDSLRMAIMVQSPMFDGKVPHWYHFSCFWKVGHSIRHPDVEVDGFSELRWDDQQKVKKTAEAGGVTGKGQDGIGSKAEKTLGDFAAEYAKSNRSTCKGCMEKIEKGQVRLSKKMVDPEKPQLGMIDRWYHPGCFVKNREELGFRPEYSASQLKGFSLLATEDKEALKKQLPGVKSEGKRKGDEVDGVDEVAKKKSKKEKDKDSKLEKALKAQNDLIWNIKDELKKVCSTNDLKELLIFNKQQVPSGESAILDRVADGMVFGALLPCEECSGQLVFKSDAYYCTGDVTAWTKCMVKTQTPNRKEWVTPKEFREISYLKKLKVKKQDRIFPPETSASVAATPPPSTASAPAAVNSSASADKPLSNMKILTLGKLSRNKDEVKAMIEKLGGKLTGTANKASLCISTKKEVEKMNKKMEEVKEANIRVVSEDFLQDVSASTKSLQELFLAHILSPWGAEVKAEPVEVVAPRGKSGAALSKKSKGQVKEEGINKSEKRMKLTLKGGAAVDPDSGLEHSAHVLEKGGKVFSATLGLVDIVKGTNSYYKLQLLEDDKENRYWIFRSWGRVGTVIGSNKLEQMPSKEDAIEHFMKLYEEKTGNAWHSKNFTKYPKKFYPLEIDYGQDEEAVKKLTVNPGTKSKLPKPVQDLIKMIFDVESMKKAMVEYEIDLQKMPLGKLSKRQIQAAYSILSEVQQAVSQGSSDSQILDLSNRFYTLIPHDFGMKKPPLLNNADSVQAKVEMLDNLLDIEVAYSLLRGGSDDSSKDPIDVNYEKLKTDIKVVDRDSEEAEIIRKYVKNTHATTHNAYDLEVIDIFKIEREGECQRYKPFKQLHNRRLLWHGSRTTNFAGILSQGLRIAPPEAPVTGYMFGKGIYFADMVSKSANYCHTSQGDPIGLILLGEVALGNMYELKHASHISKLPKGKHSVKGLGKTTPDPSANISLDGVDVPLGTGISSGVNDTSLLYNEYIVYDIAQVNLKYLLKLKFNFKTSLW

With `O=c1[nH]c(=O)n(C2CCN(CC(O)C3CCc4ccccc4O3)CC2)c2ccccc12` (stereo in doubt) [Compound 9, 1-[1-[(2S)-2-[(2R)-3,4-dihydro-2H-1-benzopyran-2-yl]-2-hydroxyethyl]-4-piperidinyl]-2,4(1H,3H)-quinazolinedione], the IC50 at PARP-1 enzyme (setting [1]) is 0.359 µM.

`O=c1[nH]c(=O)n(C2CCNCC2)c2ccccc12` [Compound 1] yielded a melting point of 253.7 °C. Further, at PARP-1 enzyme (setting [1]), the IC50 was 0.204 µM.

Consider `O=C(CCCN1CCC(n2c(=O)[nH]c(=O)c3ccccc32)CC1)c1ccc(F)cc1` [Compound 2], for which the melting point is 195 °C. Also, the IC50 at PARP-1 enzyme (setting [1]) was 0.257 µM.

Compound `O=c1[nH]c(=O)n(CCCN2CCC(c3c[nH]c4ccccc34)CC2)c2ccccc12` [Compound 3] had a melting point of 216.8 °C. The compound also gave an IC50 against PARP-1 enzyme of 0.136 µM.

On to `O=c1[nH]c(=O)n(C2CCN(CCCn3c(=O)[nH]c4ccccc43)CC2)c2ccccc12` [Compound 5], for which, at PARP-1 enzyme (setting [1]), the IC50 was 0.348 µM.

In the case of `O=c1[nH]c(=O)n(CCN2CCC(O)(c3ccc(Cl)cc3)CC2)c2ccccc12` [Compound 6], on PARP-1 enzyme (setting [1]), the IC50 was 0.167 µM.

With `O=c1[nH]c(=O)n(CCCN2CCC(O)(c3ccc(Cl)cc3)CC2)c2ccccc12` [Compound 7], the IC50 on PARP-1 enzyme (setting [1]) was 0.292 µM.

Turning to `O=C(c1ccc(F)cc1)C1CCN(CCn2c(=O)[nH]c(=O)c3ccccc32)CC1` [Compound 10, 1-[2-[4-(4-fluorobenzoyl)-1-piperidinyl]ethyl]-2,4-(1H,3H)-quinazolinedione], the IC50 on PARP-1 enzyme (setting [1]) was 0.22 µM.

As to `O=C(c1ccc(F)cc1)C1CCN(CCCn2c(=O)[nH]c(=O)c3ccccc32)CC1` [Compound 11, 1-[3-[4-(4-fluorobenzoyl)-1-piperidinyl]propyl]-2,4-(1H,3H)-quinazolinedione], at PARP-1 enzyme (setting [1]), the IC50 was 0.221 µM.

Values taken from patent US9255080B2, “Quinazolinedione derivatives as PARP inhibitors” (Janssen Pharmaceutica NV, priority 2004, dated 2016).
